According to patent EP4140481A1, “PROTEIN-OLIGOMER BINDING AGENTS AND THERAPEUTIC USES THEREOF” (Galyan Bio, Inc., priority 2021, dated 2023):

Legend:
[1] = Solubilization of Compound 4; format: physicochemical
A30P mutant α-Synuclein = biological target: T1, A30P mutant α-Synuclein (Homo sapiens, UniProt P37840, A30P); test: Dynamic Light Scattering (DLS), induced aggregation; format: biochemical
T1 construct: purchased rPeptide, Watkinsville, Georgia S-1005-2
Description: Proteins were ultracentrifuged with 50,000 rpm (rounds per minute) for one hour at 2 °C. The supernatant was used for DLS measurements. DLS measurements were conducted with Malvern Zetasizer Nano (Malvern Panalytical Ltd, United Kingdom).
A30P mutant α-Synuclein (catalog S-1005-2, rPeptide, Watkinsville, Georgia) was solved in 20 mM phosphate, pH 7.4 buffer.

C. elegans [2] = test: C. elegans growth and development (toxicity) assay; format: in vivo; conditions: doses 32nM to 500µM, hatching to first day of adulthood
Description: Delivery strategy: The indicated compound dosage is based on the total volume of the plates with the assumption that the water-soluble compound diffuses throughout the agar. The compound is dissolved in a working solution and then combined directly with the food bacteria before seeding on agar plates. The food spots are dried slowly, allowing the compound to diffuse into the food bacteria and the agar for 24 hours.
Growth and development assay results: High-resolution imaging and automated detection were used to precisely measure the growth rate of animals from hatching to the first day of adulthood (total of 4 days). The C. elegans growth and development assay is highly sensitive and widely used in toxicology studies. Performing this test over a range of doses helps to identify a set of doses that have a physiological impact and exclude dose ranges that are likely too toxic to benefit lifespan.

C. elegans [3] = test: C. elegans healthspan, Worm Activity (aggregate movement); format: in vivo
Source text: Background: To measure healthspan, active worms were identified using the ALM scanner images from the lifespan assay. The worms' spatial location on the plate was quantified throughout their lifespan to assess healthspan. Worm Activity serves as a proxy for animal health. Changes in spatial distribution of the worms between time points is used to derive aggregate movement for the population over time.
Worm Activity is described by two complementary measurements of aggregate movement: 1) Centroid Distance calculates a geometric center for each individual worm, and then measures the minimum collective distance that a group of worms moved between time points. It achieves measurement of the changes in spatial distribution betweentime-points. 2). Spatial Distribution uses changes in worm contours between time points to measure the changes in the spatial distribution of the worms' bodies. The normalized distribution of these distances in the population provides a measure of how much the group of worms altered their positions and posture on the plate between two time-points. For both of these activity metrics, a plot with higher numbers indicates good health, and all measures are normalized to fall between 0 and 1. All measurements are based on worms that are still alive and moving at the time of quantification. […]

mHTT = biological target: T2, mHTT (Homo sapiens, UniProt P42858); conditions: reported effects in cultured cells, quoted for C. elegans dose selection; cited from earlier work
T2 construct: host or cells: ST HDH Q111/111 mouse striatal cell line (knock-in locus)

R6/2 mice = test: Grip strength in R6/2 mice of Huntington's disease; format: in vivo; conditions: 33 mg/kg i.p. QD; versus vehicle treated R6/2 mice
Description: Methods ― Total of 20 female and male R6/2 mice and 10 female and male wild-type littermate control mice (WT) were used in the study. The mice were genotyped and the R6/2 mice were divided into different treatment groups based on their litter and baseline body weight. The treatment with Vehicle or Compound 22 (33 mg/kg; 5 ml/kg, i.p. QD) was started at 4 weeks of age after the baseline behavioral tests (Figure 6). Body weights were measured at 3 weeks of age and twice a week until the end of the study.
The experimental groups were: • Group 1) 10 wild-type mice (mixed gender) treated with Vehicle (5 ml/kg, i.p., QD) starting at 4 weeks of age • Group 2) 10 R6/2 mice (mixed gender) treated with Vehicle (5 ml/kg, i.p., QD) starting at 4 weeks of age • Group 3) 10 R6/2 mice (mixed gender) treated with Compound 22 (33 mg/kg; 5 ml/kg, i.p. QD) starting at 4 weeks of age
Compound Delivery and Dosing - Treatment with Compound 22 (33 mg/kg; 5 ml/kg, i.p. QD) or Vehicle was started at age week 4 and continued until the 12 weeks of age. […]
Mice were taken to the experimental room and, one at a time, were placed on the grip strength apparatus (San Diego Instruments, San Diego, USA) in such a way that the animal grabbed a small mesh grip with its forepaws. […] Five scores were recorded per animal in consecutive sequence, and the average of three best scores for each animal was used for the results. […]

Microsomal stability = format: in vitro ADME; conditions: humans versus mice
[4] = by number, 100 µM equimolar Compound 4
[5] = by volume, 100 µM equimolar Compound 4

T2 sequence (P42858 with tags, fused parts or gaps with the stated changes): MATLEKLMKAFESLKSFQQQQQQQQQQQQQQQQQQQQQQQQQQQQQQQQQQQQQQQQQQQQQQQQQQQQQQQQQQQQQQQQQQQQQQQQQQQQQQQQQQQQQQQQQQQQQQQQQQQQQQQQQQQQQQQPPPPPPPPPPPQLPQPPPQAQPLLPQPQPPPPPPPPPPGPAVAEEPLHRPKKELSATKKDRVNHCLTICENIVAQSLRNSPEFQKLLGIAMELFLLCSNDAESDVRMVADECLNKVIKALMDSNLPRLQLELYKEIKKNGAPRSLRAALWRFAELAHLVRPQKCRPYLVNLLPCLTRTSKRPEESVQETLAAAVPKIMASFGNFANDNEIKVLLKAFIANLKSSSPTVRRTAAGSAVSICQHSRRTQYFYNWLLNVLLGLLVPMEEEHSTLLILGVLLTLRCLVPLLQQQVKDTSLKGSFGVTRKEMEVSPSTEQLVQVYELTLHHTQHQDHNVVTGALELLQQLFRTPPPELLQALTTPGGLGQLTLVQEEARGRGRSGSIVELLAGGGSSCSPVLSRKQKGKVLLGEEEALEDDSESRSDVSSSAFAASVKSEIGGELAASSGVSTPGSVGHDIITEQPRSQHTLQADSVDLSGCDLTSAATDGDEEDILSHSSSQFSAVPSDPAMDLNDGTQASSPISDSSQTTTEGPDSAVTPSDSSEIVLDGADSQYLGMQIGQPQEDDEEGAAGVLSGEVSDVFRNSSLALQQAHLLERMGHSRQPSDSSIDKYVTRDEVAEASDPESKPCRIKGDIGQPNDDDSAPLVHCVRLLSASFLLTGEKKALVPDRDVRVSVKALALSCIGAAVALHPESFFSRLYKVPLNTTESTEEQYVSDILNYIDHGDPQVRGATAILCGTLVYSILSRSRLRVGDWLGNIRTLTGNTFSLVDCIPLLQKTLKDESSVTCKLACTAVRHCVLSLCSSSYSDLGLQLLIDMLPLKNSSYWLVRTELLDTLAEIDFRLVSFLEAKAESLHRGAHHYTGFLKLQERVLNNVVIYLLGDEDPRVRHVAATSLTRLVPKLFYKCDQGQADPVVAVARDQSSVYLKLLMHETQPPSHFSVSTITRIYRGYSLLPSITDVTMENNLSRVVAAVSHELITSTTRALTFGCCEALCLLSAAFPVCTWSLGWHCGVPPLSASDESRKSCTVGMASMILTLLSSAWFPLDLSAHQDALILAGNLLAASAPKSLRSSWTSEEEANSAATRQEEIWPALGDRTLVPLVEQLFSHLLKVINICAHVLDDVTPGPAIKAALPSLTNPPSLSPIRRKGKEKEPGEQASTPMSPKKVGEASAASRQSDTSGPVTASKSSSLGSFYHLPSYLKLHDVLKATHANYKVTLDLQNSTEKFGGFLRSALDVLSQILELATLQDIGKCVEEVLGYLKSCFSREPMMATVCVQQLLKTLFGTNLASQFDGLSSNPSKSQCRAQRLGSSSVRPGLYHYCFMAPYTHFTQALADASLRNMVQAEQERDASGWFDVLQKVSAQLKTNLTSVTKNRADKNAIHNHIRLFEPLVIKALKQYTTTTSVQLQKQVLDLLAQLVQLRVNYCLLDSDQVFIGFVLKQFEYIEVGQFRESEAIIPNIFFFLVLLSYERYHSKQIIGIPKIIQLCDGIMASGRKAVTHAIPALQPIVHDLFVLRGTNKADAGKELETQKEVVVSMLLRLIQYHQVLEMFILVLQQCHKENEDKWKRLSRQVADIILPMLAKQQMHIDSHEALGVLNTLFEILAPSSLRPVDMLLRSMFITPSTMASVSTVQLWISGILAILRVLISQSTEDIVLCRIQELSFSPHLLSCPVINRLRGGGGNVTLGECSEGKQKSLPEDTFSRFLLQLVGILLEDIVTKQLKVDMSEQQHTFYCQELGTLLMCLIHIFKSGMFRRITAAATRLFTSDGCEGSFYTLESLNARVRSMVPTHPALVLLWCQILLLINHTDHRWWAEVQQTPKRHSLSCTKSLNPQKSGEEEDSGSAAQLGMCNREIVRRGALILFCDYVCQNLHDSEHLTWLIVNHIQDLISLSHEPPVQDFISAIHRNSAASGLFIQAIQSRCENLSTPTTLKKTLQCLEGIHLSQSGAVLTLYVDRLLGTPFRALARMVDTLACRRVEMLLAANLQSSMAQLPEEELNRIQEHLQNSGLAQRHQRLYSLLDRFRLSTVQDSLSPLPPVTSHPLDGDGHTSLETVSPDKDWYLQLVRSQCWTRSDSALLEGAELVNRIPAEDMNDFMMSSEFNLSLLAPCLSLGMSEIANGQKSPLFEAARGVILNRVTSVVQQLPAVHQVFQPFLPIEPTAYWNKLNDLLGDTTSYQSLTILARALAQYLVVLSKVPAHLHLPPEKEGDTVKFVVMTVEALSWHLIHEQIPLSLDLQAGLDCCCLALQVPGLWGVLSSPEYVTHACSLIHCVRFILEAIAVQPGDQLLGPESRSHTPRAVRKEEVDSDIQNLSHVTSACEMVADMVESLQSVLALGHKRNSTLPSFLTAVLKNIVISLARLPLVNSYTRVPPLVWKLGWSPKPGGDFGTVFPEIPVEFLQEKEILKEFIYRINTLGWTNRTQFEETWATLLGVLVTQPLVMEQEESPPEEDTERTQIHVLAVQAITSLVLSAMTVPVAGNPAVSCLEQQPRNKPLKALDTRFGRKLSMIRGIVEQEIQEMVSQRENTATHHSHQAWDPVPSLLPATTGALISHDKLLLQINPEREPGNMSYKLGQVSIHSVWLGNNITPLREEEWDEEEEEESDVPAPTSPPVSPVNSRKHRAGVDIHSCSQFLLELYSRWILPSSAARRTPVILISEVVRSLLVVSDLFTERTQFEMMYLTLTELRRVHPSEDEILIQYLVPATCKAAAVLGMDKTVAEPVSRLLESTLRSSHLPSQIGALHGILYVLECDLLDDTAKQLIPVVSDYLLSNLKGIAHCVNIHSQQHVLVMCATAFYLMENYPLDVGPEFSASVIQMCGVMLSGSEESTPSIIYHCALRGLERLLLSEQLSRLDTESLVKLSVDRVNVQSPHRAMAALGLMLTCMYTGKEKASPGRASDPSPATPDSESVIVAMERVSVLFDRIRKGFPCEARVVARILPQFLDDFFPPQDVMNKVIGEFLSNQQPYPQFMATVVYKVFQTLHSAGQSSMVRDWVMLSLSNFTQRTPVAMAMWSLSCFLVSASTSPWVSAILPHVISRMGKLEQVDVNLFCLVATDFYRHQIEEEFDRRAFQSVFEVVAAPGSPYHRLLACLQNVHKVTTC

| SMILES | solubility in DMSO ([1]; initial batch) | dissolved in water ([1]; second batch with an HCl modification) | % Number, Peak 1 (A30P mutant α-Synuclein; [4]) | Size, Peak 1 (A30P mutant α-Synuclein; [4]) | % Volume, Peak 1 (A30P mutant α-Synuclein; [5]) | % Volume, Peak 2 (A30P mutant α-Synuclein; [5]) | % Volume, Peak 3 (A30P mutant α-Synuclein; [5]) | Size, Peak 1 (A30P mutant α-Synuclein; [5]) | Size, Peak 2 (A30P mutant α-Synuclein; [5]) | Size, Peak 3 (A30P mutant α-Synuclein; [5]) | aggregation of oligomers of A30P (A30P mutant α-Synuclein; equimolar Compound 4) | highest concentration at which no adverse effects were detected (C. elegans [2]) | aggregate movement (Centroid Distance, Spatial Distribution) (C. elegans [3]; high dose (2 µM), after a slower start) | aggregate movement (Centroid Distance, Spatial Distribution) (C. elegans [3]; low dose (200 nM), over the lifespan) | EC50 (mHTT) | grip strength (R6/2 mice) | microsomal stability in humans, times higher in comparison to mice (Microsomal stability) |
| --- | --- | --- | --- | --- | --- | --- | --- | --- | --- | --- | --- | --- | --- | --- | --- | --- | --- |
| CCc1c(C)[nH]c2ccc(C(=O)NCCN(CC)CC)cc12 [Compound 4, N-(2-(diethylamino)ethyl)-3-ethyl-2-methyl-1H-indole-5-carboxamide] | limited solubility | ≥ 200 mM | 100,0% | 86,77 nm | 36.1% | 36.3% | 27.6% | 107.0 nm | 313.6 nm | 3063 nm | induces the formation of aggregates of oligomers of A30P | 4 µM | even more elevated movement | consistently higher aggregate movement than control | 160 nM | – | – |
| Cc1[nH]c2ccc(C(=O)NCCN(C(C)C)C(C)C)cc2c1C [Compound 22] | – | – | – | – | – | – | – | – | – | – | – | – | – | – | – | no significant differences | 20 times |
